pIC50: −log10 of the molar value. Read-outs that look alike come from different tables or passages of the source.
Assays:
22Rv1 = test: 3D clonogenic assay (soft agar); details: for pIC50: Homo sapiens, 22Rv1, read-out: Cabazitaxel IC50, 22Rv1, 3D clonogenic assay
DU-145 [1] = test: 3D clonogenic assay (soft agar); details: for pIC50: Homo sapiens, DU-145, read-out: Cabazitaxel IC50, DU-145, 3D clonogenic assay
22Rv1DOC8 = test: 3D clonogenic assay (soft agar); assay type: cell-based, human; details: 3D clonogenic assay; for pIC50: 22Rv1DOC8, read-out: Cabazitaxel IC50; for Relative resistance: 22Rv1DOC8 vs 22Rv1
DU-145DOC10 = test: 3D clonogenic assay (soft agar); assay type: cell-based, human; details: for Relative resistance: DU-145DOC10 vs DU-145; for pIC50: Homo sapiens, DU-145DOC10
GXA NUGC-4 = test: cells; details: Homo sapiens, NUGC-4, read-out: Relative ritonavir IC50
PC-3M = test: 2D proliferation assay (CellTiter-Blue); details: Homo sapiens, read-out: Relative ritonavir IC50
LXFA EKVX = test: cells; details: Homo sapiens, read-out: Relative ritonavir IC50
MAXFTN CAL-51 = test: cells; details: Homo sapiens, CAL-51, read-out: Relative ritonavir IC50
MAXFTN MCF 10A = test: cells; details: Homo sapiens, read-out: Relative ritonavir IC50
15 tumor cell lines = test: 2D proliferation assay (CellTiter-Blue), panel of 15 tumor cell lines; details: at the concentration ranges tested; 2D proliferation assay
LXFA 737 = test: 2D proliferation assay (CellTiter-Blue); details: read-out: Relative ritonavir IC50
DU-145 cells = details: NCI60 panel, read-out: IC50 value, anti-proliferative effect; cited from earlier work
OVXF NCI-ADR-RES = test: cells; details: Homo sapiens, read-out: Relative ritonavir IC50
OVXF 899 = test: cells; details: read-out: Relative ritonavir IC50
GXA 3011 = test: cells; details: read-out: Relative ritonavir IC50
PC-3 = test: 2D proliferation assay (CellTiter-Blue); assay type: cell-based; details: Homo sapiens, read-out: Relative ritonavir IC50, PC-3
DU-145 [2] = details: read-out: IC50, single agent ritonavir; DU-145 proliferation assay; cited from earlier work
PRXF DU-145 = test: 2D proliferation assay (CellTiter-Blue); assay type: cell-based, human; details: 2D proliferation assay
MAXFTN MX1 = test: 2D proliferation assay (CellTiter-Blue); details: read-out: Relative ritonavir IC50
PRXF 22Rv1 = test: 2D proliferation assay (CellTiter-Blue); assay type: cell-based; details: Homo sapiens, read-out: Relative ritonavir IC50; PRXF 22Rv1; 2D proliferation assay
MAXFLB MCF7 = test: cells; details: Homo sapiens, MCF7, read-out: Relative ritonavir IC50
OVXF EFO-27 = test: 2D proliferation assay (CellTiter-Blue); details: Homo sapiens, EFO-27, read-out: Relative ritonavir IC50

CO[C@H]1C(=O)[C@]2(C)[C@@H](OC)C[C@H]3OC[C@@]3(OC(C)=O)[C@H]2[C@H](OC(=O)c2ccccc2)[C@]2(O)C[C@H](OC(=O)[C@H](O)[C@@H](NC(=O)OC(C)(C)C)c3ccccc3)C(C)=C1C2(C)C [Cabazitaxel]
pIC50 (22Rv1; + ritonavir 10 µM): 9.15 | pIC50 (22Rv1; + ritonavir 32 µM): 9.15 | pIC50 (22Rv1; without ritonavir): 9.15 | pIC50 (DU-145 [1]; + ritonavir 10 µM): 9.52 | pIC50 (DU-145 [1]; without ritonavir): 9.22 | pIC50 (22Rv1DOC8; + ritonavir 32 µM): 9.15 | Relative resistance (22Rv1DOC8; cabazitaxel + ritonavir 10 µM): 7.4 | Relative resistance (22Rv1DOC8; cabazitaxel + ritonavir 32 µM): 1.0 | Relative resistance (22Rv1DOC8; cabazitaxel without ritonavir): 13.6 | pIC50 (22Rv1DOC8; Homo sapiens, + ritonavir 10 µM): 8.28 | pIC50 (22Rv1DOC8; Homo sapiens, + ritonavir 32 µM): 9.22 | pIC50 (22Rv1DOC8; Homo sapiens, without ritonavir): 8.02 | Relative resistance (DU-145DOC10; cabazitaxel + ritonavir 10 µM, 3D clonogenic assay): 1.0 | Relative resistance (DU-145DOC10; cabazitaxel without ritonavir, 3D clonogenic assay): 2.5 | pIC50 (DU-145DOC10; 3D clonogenic assay, + ritonavir 10 µM, read-out: Cabazitaxel IC50): 9.22 | pIC50 (DU-145DOC10; 3D clonogenic assay, without ritonavir, read-out: Cabazitaxel IC50): 8.82 | pIC50 (DU-145DOC10; cabazitaxel alone, Figure 7A, read-out: IC 50): 8.84

COc1cc2c(cc1OC)CN(CCc1ccc(NC(=O)c3cccc4c(=O)c5cccc(OC)c5[nH]c34)cc1)CC2 [Elacridar]
effect of elacridar alone on parental cells (22Rv1; 22Rv1 parental, data not shown): no effect | effect of elacridar alone on parental cells (DU-145 [1]; DU-145 parental, data not shown): no effect

CC(C)c1nc(CN(C)C(=O)N[C@H](C(=O)N[C@@H](Cc2ccccc2)C[C@H](O)[C@H](Cc2ccccc2)NC(=O)OCc2cncs2)C(C)C)cs1 [Ritonavir]
pIC50 (GXA NUGC-4): 5.90 | pIC50 (PC-3M): 4.63 | pIC50 (LXFA EKVX): < 4.52 | pIC50 (MAXFTN CAL-51): < 4.52 | pIC50 (MAXFTN MCF 10A): < 4.52 | single agent activity (15 tumor cell lines): no considerable or only low activity | pIC50 (LXFA 737): < 4.52 | pIC50 (DU-145 cells): < 4.70 | pIC50 (OVXF NCI-ADR-RES): < 4.52 | pIC50 (OVXF 899): 4.59 | pIC50 (GXA 3011): < 4.52 | pIC50 (PC-3): 4.66 | pIC50 (DU-145 [2]): 5.52 | pIC50 (PRXF DU-145; Homo sapiens, DU-145, read-out: Relative ritonavir IC50, PRXF DU-145): 4.79 | pIC50 (PRXF DU-145; read-out: Relative ritonavir IC50, PRXF DU-145): 4.79 | pIC50 (MAXFTN MX1): < 4.65 | pIC50 (PRXF 22Rv1): 4.53 | pIC50 (MAXFLB MCF7): < 4.52 | pIC50 (OVXF EFO-27): < 4.52

Reference: publication PMC10838382 (Cancer Drug Resistance, 2024)
